Results published in US9579407B2, “Radiolabeled compounds and their use as radiotracers for quantitative imaging of phosphodiesterase (PDE10A) in mammals” (TAKEDA PHARMACEUTICAL COMPANY LIMITED, priority 2011, dated 2017).

Experiments:
[1] = test system: Human PDE1A, 2A3, 3A, 4D2, 5A1, 6AB, 7B, 8A1, 9A2, and 11A4 enzymes; experiment: PDE family enzyme inhibition selectivity assay (SPA); format: biochemical; conditions: ratio of IC50 for each PDE other than PDE10A to IC50 for PDE10A
Method: The PDE10A IC50 is a measure of the ability of the test compound to inhibit the action of the PDE10A enzyme. To determine the selectivity of the test compounds for PDE10A, the IC50 of the compound was determined for PDEs 1-9, and 11.
Human PDE1A, 3A, 4D2, 5A1, 7B, 8A1, 9A2, and 11A4 enzymes were purchased from BPS Bioscience. Human PDE6AB enzyme was purchased from Scottish Biomedical. Human PDE2A3 was generated from Sf9 transfected with the full-length gene in house. PDE activities were measured using a SPA (Scintillation Proximity Assay) (PerkinElmer). To evaluate the inhibitory activity, 10 μL of serial diluted compounds were incubated with 20 μL of PDE enzyme in assay buffer (50 mM HEPES-NaOH, 8.3 mM MgCl2, 1.7 mM EGTA, 0.1% BSA (pH 7.4)) for 30 min. at room temperature. Final concentration of DMSO in the assay was 1% as compounds were tested in duplicate in 96-well half-area plates (Corning). To start the reaction, 10 μL of substrate [^3H] cGMP (PerkinElmer) for PDE1A, 2A3, 5A1, 6AB, 9A2, and 11A4 or [^3H] cAMP (PerkinElmer) for PDE3A, 4D2, 7B, and 8A1 was added for a final assay volume of 40 μL. After 60 min incubation at room temperature, yttrium SPA beads containing zinc sulphate were added (20 μL at 6 mg/mL) to terminate the PDE reaction. After being settled for 60 min., assay plates were counted in a scintillation counter (PerkinElmer) to allow calculation of inhibition rate. IC50 values were calculated on the basis of 0% control wells with DMSO and 100% control wells without enzyme. Selectivity was defined as the ratio of IC50 for each PDE other than PDE10A to IC50 for PDE10A.

Human PDE10A enzyme = Human PDE10A enzyme (Homo sapiens (Human), UniProt Q9Y233); experiment: PDE10A enzyme inhibition (SPA, [3H]cGMP); format: biochemical; conditions: unlabeled compound
Method: Many of the compounds within the present invention had activity in inhibiting the human PDE10A enzyme in the aforementioned assay, generally with an […] of less than about 0.1 μM. Such a result is indicative of the intrinsic activity of the compounds in use as inhibitors of the PDE10A enzyme.
Human PDE10A enzyme was generated from Sf9 or COS-7 cells transfected with the full-length gene. Cloned enzyme was extracted from homogenized cell pellets. The extracted enzyme from sf9 cells was partially purified using His-tag affinity column. The enzyme was stored at −70° C. until use. PDE activity was measured using a SPA (Scintillation Proximity Assay) (GE Healthcare). To evaluate the inhibitory activity, 10 μL of serial diluted compounds were incubated with 20 μL of PDE enzyme in assay buffer (50 mM HEPES-NaOH, 8.3 mM MgCl2, 1.7 mM EGTA, 0.1% BSA (pH 7.4)) for 30 min. at room temperature. Final concentration of DMSO in the assay was 1% as compounds were tested in duplicate in 96-well half-area plates (Corning). To start the reaction, 10 μL of substrate [^3H] cGMP (25 or 50 nM; enclosed in SPA kits from GE Healthcare or purchased from PerkinElmer, respectively) was added for a final assay volume of 40 μL. After 60 min incubation at room temperature, yttrium SPA beads containing zinc sulphate were added (20 μL at 6 mg/mL) to terminate the PDE reaction. After being settled for 60 min., assay plates were counted in a scintillation counter (PerkinElmer) to allow calculation of inhibition rate. IC50 values were calculated on the basis of 0% control wells with DMSO and 100% control wells without enzyme.

[2] = PET brain uptake (whole brain and regional), [11C]compound; format: in vivo, rhesus monkeys; conditions: for regional brain uptake: regions of interest on MRI/PET coregistered images; for time at which whole brain uptake decreased to half / time at which whole brain uptake reached peak / whole brain uptake at the peak: i.v.; for time at which whole brain uptake reached peak: 123-min PET; for whole brain uptake at the peak: % ID = total radioactivity in the brain*100/injected radioactivity
Method: (§1) PET measurements were performed with the High Resolution Research Tomograph system (HRRT) (Siemens Molecular Imaging) using two rhesus monkeys with body weight of 4450 g and 5000 g. The monkeys were maintained under gas anesthesia of sevoflurane, oxygen, and medical air during PET measurements. 123-min dynamic brain PET data were acquired in List mode after 150 and 162 MBq of [^11C] compound of Example 2 and 159 and 162 MBq of [^11C] compound of Example 3 were injected intravenously. List-mode data were reconstructed using the ordinary Poisson-3D-ordered subset expectation maximization (OP-3D-OSEM) algorithm, with 10 iterations and 16 subsets including modelling of the point spread function (PSF). During PET acquisition, venous blood sampling was performed for the metabolite analysis.
(§2) T1-weighted MR images were acquired with an MRI system GE 1.5 T Signa unit (Milwaukee, Wis., USA). The T1 sequence was a 3-D SPGR protocol with the following settings: repetition time (TR) 21 ms, flip angle 35°, FOV 12.8, matrix 256×256×128, 128×1.0 mm slices.
(§3) Regions of interest (ROIs) for Caudate, Putamen, Nucleus Accumbens, Thalamus, Cerebellum, Frontal cortex, Temporal cortex, and whole brain were delineated on MRI/PET coregistered images using PMOD software (v3.1 PMOD Technologies Ltd. Zurich, Switzerland). Time activity curves were generated for these regions. The uptake was expressed as % ID (=total radioactivity in the brain (MBq)*100/injected radioactivity (MBq)) or % SUV (=radioactivity in the region (MBq/cc)*100/(injected radioactivity (MBq)/Body weight (g))). Metabolite fraction in the plasma was measured by a radio LC analysis. The results are shown in FIGS. 3, 4, 5, 6, 7, 8, 9 and 10.

PDE10A [3] = experiment: PET specific radioligand binding in putamen (PDE10A rich region) vs cerebellum, [11C]compound; format: in vivo, rhesus monkeys; conditions: for ratio of the specific binding between the uptake in the target region and the uptake in the cerebellum: increased up to, during 123 min PET measurements; for time of peak of specific binding in Putamen: uptake of the putamen minus the cerebellum
Method: (§4) Since the compounds of the present invention show efficacy exhibition, they are useful as PET radioligands of PDE10A.
as §1, §3

[4] = Plasma metabolite analysis (parent fraction) during PET, [11C]compound; format: in vivo, rhesus monkeys; conditions: venous plasma, i.v.
Method: as §1, §3

PDE10A [5] = experiment: PET specific radioligand binding in putamen (PDE10A rich region) vs cerebellum, [18F]compound; format: in vivo, cynomolgus monkeys; conditions: for ratio of the specific binding between the uptake in the target region and the uptake in the cerebellum: increased up to; for time of peak of specific binding in Putamen: uptake of the putamen minus the cerebellum
Method: as §4
(§5) PET measurements were performed with the High Resolution Research Tomograph system (HRRT) (Siemens Molecular Imaging) using three cynomolgus monkeys with body weight of 3730 g to 4845 g. The monkeys were maintained under gas anesthesia of sevoflurane, oxygen, and medical air during PET measurements.
(§6) 180-min dynamic brain PET data were acquired in List mode after 148 and 157 MBq of [^18F]compound of Example 119 and 159 and 163 MBq of [^18F]compound of Example 120 were injected intravenously. List-mode data were reconstructed using the ordinary Poisson-3D-ordered subset expectation maximization (OP-3D-OSEM) algorithm, with 10 iterations and 16 subsets including modelling of the point spread function (PSF). During PET acquisition, venous blood sampling was performed for the metabolite analysis.
as §3, with “(v3.2PMOD” for “(v3.1 PMOD”, “13, 14, 15, 16, 17, 18, 19” for “3, 4, 5, 6, 7, 8, 9”, “20.” for “10.”

[6] = PET brain uptake (whole brain and regional), [18F]compound; format: in vivo, cynomolgus monkeys; conditions: for regional brain uptake: regions of interest on MRI/PET coregistered images; for time at which whole brain uptake decreased to half / time at which whole brain uptake reached peak / whole brain uptake at the peak: i.v.; for time at which whole brain uptake reached peak: 180-min PET; for whole brain uptake at the peak: % ID = total radioactivity in the brain*100/injected radioactivity
Method: as §5, §6, §2
as §3, with “(v3.2PMOD” for “(v3.1 PMOD”, “13, 14, 15, 16, 17, 18, 19” for “3, 4, 5, 6, 7, 8, 9”, “20.” for “10.”

[7] = Plasma metabolite analysis (parent fraction) during PET, [18F]compound; format: in vivo, cynomolgus monkeys; conditions: venous plasma, i.v.
Method: as §5, §6
as §3, with “(v3.2PMOD” for “(v3.1 PMOD”, “13, 14, 15, 16, 17, 18, 19” for “3, 4, 5, 6, 7, 8, 9”, “20.” for “10.”

Chain of Human PDE10A enzyme (Q9Y233 267-1055): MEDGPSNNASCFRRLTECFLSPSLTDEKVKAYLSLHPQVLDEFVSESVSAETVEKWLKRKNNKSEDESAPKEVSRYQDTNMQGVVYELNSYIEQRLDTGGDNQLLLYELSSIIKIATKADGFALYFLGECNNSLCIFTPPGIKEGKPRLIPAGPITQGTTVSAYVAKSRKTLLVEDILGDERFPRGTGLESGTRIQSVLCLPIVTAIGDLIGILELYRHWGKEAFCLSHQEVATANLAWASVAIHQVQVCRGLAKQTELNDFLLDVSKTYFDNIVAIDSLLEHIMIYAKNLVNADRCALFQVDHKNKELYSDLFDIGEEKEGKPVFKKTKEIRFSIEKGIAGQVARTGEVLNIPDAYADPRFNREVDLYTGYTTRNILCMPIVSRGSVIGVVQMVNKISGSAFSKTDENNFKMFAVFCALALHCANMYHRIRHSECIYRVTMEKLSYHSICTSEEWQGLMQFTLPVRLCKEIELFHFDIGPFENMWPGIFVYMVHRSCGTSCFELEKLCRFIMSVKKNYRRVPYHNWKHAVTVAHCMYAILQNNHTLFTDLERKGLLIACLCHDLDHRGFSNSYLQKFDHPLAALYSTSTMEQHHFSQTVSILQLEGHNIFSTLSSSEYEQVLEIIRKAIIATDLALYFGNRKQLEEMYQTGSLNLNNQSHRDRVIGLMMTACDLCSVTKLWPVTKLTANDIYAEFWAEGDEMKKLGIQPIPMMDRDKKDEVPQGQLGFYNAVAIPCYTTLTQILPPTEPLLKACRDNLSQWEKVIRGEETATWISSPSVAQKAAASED

[2H]C([2H])(F)C([2H])([2H])Oc1cn(-c2ccc(C3CCOCC3)cc2F)nc(-c2ccnn2-c2ccccc2)c1=O [Reference Example 123, 5-(2-Fluoroethoxy-d4)-1-{2-fluoro-4-(tetrahydro-2H-pyran-4-yl)phenyl}-3-(1-phenyl-1H-pyrazol-5-yl)pyridazin-4(1H)-one]
Selectivity over other PDEs [1]: >100-fold
IC50 (Human PDE10A enzyme): < 10 nM

[11CH3]Oc1cn(-c2ccc(N3CC(F)(F)C3)cc2F)nc(-c2ccnn2-c2ccccc2)c1=O [Example 2]
regional brain uptake [2]: Putamen showed highest uptake, followed by Caudate, Nuclear Accumbens and Thalamus
time at which whole brain uptake decreased to half [2]: 60 to 66 min
time at which whole brain uptake reached peak [2]: 2.5 to 7.5 min
whole brain uptake at the peak [2]: 3.3-5.1 % ID
ratio of the specific binding between the uptake in the target region and the uptake in the cerebellum (PDE10A [3]): 2.5-2.7
time of peak of specific binding in Putamen (PDE10A [3]): 48 min
fraction of parent compound ([4]; at 30 min): 70-76%
fraction of parent compound ([4]; at 90 min): 52-58%

COc1cn(-c2ccc(N3CC(F)(F)C3)cc2F)nc(-c2ccnn2-c2ccccc2)c1=O [Reference Example 18, 1-[4-(3,3-Difluoroazetidin-1-yl)-2-fluorophenyl]-5-methoxy-3-(1-phenyl-1H-pyrazol-5-yl)pyridazin-4(1H)-one]
Selectivity over other PDEs [1]: >1000-fold
IC50 (Human PDE10A enzyme): < 1 nM

COc1cn(-c2ccc(C3CCOCC3)cc2F)nc(-c2ccnn2-c2ccccc2)c1=O [Reference Example 16, 1-[2-Fluoro-4-(tetrahydro-2H-pyran-4-yl)phenyl]-5-methoxy-3-(1-phenyl-1H-pyrazol-5-yl)pyridazin-4(1H)-one]
Selectivity over other PDEs [1]: >1000-fold
IC50 (Human PDE10A enzyme): < 1 nM

[2H]C([2H])(F)C([2H])([2H])Oc1cn(-c2ccc(C3CCOCC3)cc2F)nc(-c2ccnn2-c2ccccc2)c1=O [Example 120, 5-(2-[^18F]fluoro-ethyloxy-d4)-1-(2-fluoro-4-(tetrahydro-2H-pyran-4-yl)phenyl)-3-(1-phenyl-1H-pyrazol-5-yl)pyridazin-4(1H)-one]
ratio of the specific binding between the uptake in the target region and the uptake in the cerebellum (PDE10A [5]; during 65-75 min PET measurements): 1.5-1.9
time of peak of specific binding in Putamen (PDE10A [5]): 35 to 41 min
regional brain uptake [6]: Putamen showed highest uptake, followed by Caudate, Nuclear Accumbens and Thalamus
time at which whole brain uptake decreased to half [6]: 23 to 35 min
time at which whole brain uptake reached peak [6]: 2.5 to 4.5 min
whole brain uptake at the peak [6]: 3.6 % ID
fraction of parent compound ([7]; at 60 min): 64-74%
fraction of parent compound ([7]; at 180 min): 51-72%

[11CH3]Oc1cn(-c2ccc(C3CCOCC3)cc2F)nc(-c2ccnn2-c2ccccc2)c1=O [Example 3, 1-[2-Fluoro-4-(tetrahydro-2H-pyran-4-yl)phenyl]-5-[^11C]methoxy-3-(1-phenyl-1H-pyrazol-5-yl)pyridazin-4(1H)-one]
regional brain uptake [2]: Putamen showed highest uptake, followed by Caudate, Nuclear Accumbens and Thalamus
time at which whole brain uptake decreased to half [2]: 30 min
time at which whole brain uptake reached peak [2]: 2 min
whole brain uptake at the peak [2]: 3.3-4.1 % ID
ratio of the specific binding between the uptake in the target region and the uptake in the cerebellum (PDE10A [3]): approximately six
time of peak of specific binding in Putamen (PDE10A [3]): 42 min
fraction of parent compound ([4]; at 30 min): 56-57%
fraction of parent compound ([4]; at 90 min): 45-53%

[2H]C([2H])(F)Oc1cn(-c2ccc(C3CCOCC3)cc2F)nc(-c2ccnn2-c2ccccc2)c1=O [Reference Example 122, 5-(Fluoromethoxy-d2)-1-{2-fluoro-4-(tetrahydro-2H-pyran-4-yl)phenyl}-3-(1-phenyl-1H-pyrazol-5-yl)pyridazin-4(1H)-one]
Selectivity over other PDEs [1]: >1000-fold
IC50 (Human PDE10A enzyme): < 10 nM

[2H]C([2H])(F)Oc1cn(-c2ccc(C3CCOCC3)cc2F)nc(-c2ccnn2-c2ccccc2)c1=O [Example 119, 5-([^18F]fluoro-methyloxy-d2)-1-(2-fluoro-4-(tetrahydro-2H-pyran-4-yl)phenyl)-3-(1-phenyl-1H-pyrazol-5-yl)pyridazin-4(1H)-one]
ratio of the specific binding between the uptake in the target region and the uptake in the cerebellum (PDE10A [5]; during 47-65 min PET measurements): 3.0-3.9
time of peak of specific binding in Putamen (PDE10A [5]): 18.5 to 29 min
regional brain uptake [6]: Putamen showed highest uptake, followed by Caudate, Nuclear Accumbens and Thalamus
time at which whole brain uptake decreased to half [6]: 23 min
time at which whole brain uptake reached peak [6]: 2.5 min
whole brain uptake at the peak [6]: 5.2-5.7 % ID
fraction of parent compound ([7]; at 60 min): 62-71%
fraction of parent compound ([7]; at 180 min): 60-63%
